The text below walks through data of patent US9309221B2, “1-substituted indazole derivative” (Dainippon Sumitomo Pharma Co., Ltd., priority 2012, dated 2016).

SMILES strings stand for the structures.

The target of one assay is T1, human α7 nAChR (Homo sapiens, UniProt P36544).
T1 construct: expressed in transfected cells; host or cells: GH4C1 cells (rat pituitary, ATCC CCL-82.2)
T1 sequence (P36544 23-502): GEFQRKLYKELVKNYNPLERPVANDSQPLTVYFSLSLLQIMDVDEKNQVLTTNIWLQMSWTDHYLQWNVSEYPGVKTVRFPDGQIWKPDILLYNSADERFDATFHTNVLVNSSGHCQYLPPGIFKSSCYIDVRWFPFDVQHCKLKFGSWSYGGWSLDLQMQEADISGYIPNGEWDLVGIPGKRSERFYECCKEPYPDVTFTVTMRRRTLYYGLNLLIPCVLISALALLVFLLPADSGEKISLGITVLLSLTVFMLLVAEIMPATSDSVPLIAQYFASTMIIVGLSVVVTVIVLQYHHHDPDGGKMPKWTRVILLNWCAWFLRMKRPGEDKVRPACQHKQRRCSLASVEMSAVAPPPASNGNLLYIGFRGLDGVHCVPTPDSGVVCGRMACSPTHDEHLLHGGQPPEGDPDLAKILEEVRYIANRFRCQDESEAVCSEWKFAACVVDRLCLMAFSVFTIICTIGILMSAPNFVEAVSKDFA
Description: Evaluation of PAM activity with human α7 nACh receptor stably expressing cells (aequorin luminescence, FDSS7000). It is filed as cell-based. The following applies: ratio of RLU (Max-Min) of test wells to control wells, ACh at EC20. An excerpt:
Evaluation of PAM Activity with Human α7 nACh Receptor Stably Expressing Cells
(1) Human α7 nAChR stably expressing cells
Human α7 nAChR stably expressing cells were generated and cultured. In detail, GH4C1 cells derived from rat pituitary (cat#CCL-82.2, ATCC, USA) were used as a host cell. PcDNA3.1Zeo vector containing a nucleotide sequence encoding a protein GenBank BAC81731 and pcDNA3.1 vector containing human α7 nAChR gene (cat#V790-20, invitrogen, Carlsbad, Calif., USA) were transfected to the cells to give aequorins and human α7 nAChR stably expressing cells respectively. The aequorins and human α7 nAChR stably expressing cells were screened with Zeocin (cat#R25001, invitrogen, Carlsbad, Calif., USA) and Geneticin (cat#10131-027, invitrogen, Carlsbad, Calif., USA) respectively.
The cells were cultured in F-10 Nutrient Mixture (Ham) medium (cat#11550-043, invitrogen, Carlsbad, Calif., USA) containing 2.5% fetal bovine serum (cat#2917354, ICN Biomedicals, Inc, USA), 15% inactivated horse serum (cat#26050-088, invitrogen, Carlsbad, Calif., USA), 1 μg/mL Geneticin, and 5 μg/mL Puromycin (cat#14861-84, invitrogen, Carlsbad, Calif., USA), in a Collagen Type 1-coated dish (cat#4030-010, iwaki, Tokyo, Japan). During the culture, the medium was replaced with fresh medium in every 2 to 3 days, and the cells were treated with TrypLE Express (cat#45604-021, invitrogen, Carlsbad, Calif., USA) to collect them in every 7 days. Thus, the cells were subcultured.
7 Days after subculturing, the cells were treated with TrypLE Express to collect them when they were about 80% confluent. The cells were suspended in a reaction medium containing Hanks (cat#14065-056, invitrogen, Carlsbad, Calif., USA)/20 mmol/L Hepes (cat#15630-080, invitrogen, Carlsbad, Calif., USA), Buffer (pH 7.4), F-10 Nutrient Mixture (Ham), and 0.1 mg/mL Geneticin, and the suspension was seeded in a 384-well plate (cat#781090, Greiner, Germany) at 20000 cells/25 μL per well.
On the next day after seeding, Viviren (cat#E649X, Promega, Madison, Wis., USA) was added to the medium so that the final concentration could be 4 μmol/L (15 μL/well). The plates were centrifuged and then placed in the dark for 4 hours at room temperature.
(2) Preparation of the Test Samples
Each of the test compounds was dissolved in DMSO to prepare each test sample at a concentration of 1000-fold the final concentration. To the solution was added Hanks/20 mM HEPES/0.2% BSA (cat#A3803, Sigma, St. Louis, Mo., USA), and the concentration was adjusted to 6-fold the final concentration.
(3) Evaluation of PAM Activity
FDSS7000 (Hamamatsu Photonics) was used to detect the luminescence signal evoked by α7 nAChR stimulation. The cells and a luminescent substrate were put on a plate, and the test sample was added thereto. […] After the addition of ACh, the luminescence signal (the central wavelength: 465 nm) was measured for 138 seconds to calculate RLU (Max-Min). The ratio of the RLU (Max-Min) of the test-compound-containing wells to that of the control wells was defined as PAM activity.
`COc1ccc2c(cnn2C2CCN(C(=O)NC3CCCCC3)CC2)c1` [Example 40]: the “PAM activity for α7 nAChR (in words)” value is reported as “stronger PAM activity than others”.
Same read-out and setting: in the case of `COCC1CCC(NC(=O)N2CCC(n3ncc4cc(C)ccc43)CC2)CC1` (stereo not shown) [Example 220] it was “stronger PAM activity than others”; in that of `COc1ccc2c(cnn2C2CCN(C(=O)NC3CCC(F)(F)CC3)CC2)c1` [Example 41, N-(4,4-difluorocyclohexyl)-4-(5-methoxy-1H-indazol-1-yl)piperidine-1-carboxamide], “stronger PAM activity than others”; in that of `CCOc1ccc2c(cnn2C2CCN(C(=O)NC3CCCC3)CC2)c1` [Example 17], “stronger PAM activity than others”.
As to `CCc1ccc2c(cnn2C2CCN(C(=O)NC3CCCC3)CC2)c1` [Example 20], the “PAM activity for α7 nAChR (in words)” value is given as “stronger PAM activity than others”.
Still for that read-out and setting: in the case of `Cc1ccc2c(cnn2C2CCN(C(=O)NC3CCCCC3)CC2)c1` [Example 8, N-cyclohexyl-4-(5-methyl-1H-indazol-1-yl)piperidine-1-carboxamide] it was “stronger PAM activity than others”; in that of `CCOc1ccc2c(cnn2C2CCN(C(=O)NC3CCCCC3)CC2)c1` [Example 18, N-cyclohexyl-4-(5-ethoxy-1H-indazol-1-yl)piperidine-1-carboxamide], “stronger PAM activity than others”.
Same read-out and setting: the entry for `Cc1ccc2c(cnn2C2CCN(C(=O)NC3CCC(F)(F)CC3)CC2)c1` [Example 13, N-(4,4-difluorocyclohexyl)-4-(5-methyl-1H-indazol-1-yl)piperidine-1-carboxamide] is “stronger PAM activity than others”.

Still in this assay, the particulars now being: test compound 10 μmol/L; ACh at EC20; ratio of RLU (Max-Min) of test-compound wells to control wells; human α7 nAChR expressing GH4C1 cells.
In the case of `COc1ccc2c(cnn2C2CCN(C(=O)NC3CCC(F)(F)CC3)CC2)c1` [Example 41, N-(4,4-difluorocyclohexyl)-4-(5-methoxy-1H-indazol-1-yl)piperidine-1-carboxamide], the “α7PAM (%) @ 10 μmol/L” value is 3749%.
Same read-out and setting: the figure for `COCc1c(C)ccc2c1cnn2C1CCN(C(=O)NC2CCC(F)(F)CC2)CC1` [Example 213] is 800%; for `COCCCc1ccc2c(cnn2C2CCN(C(=O)N[C@H]3CC[C@H](OC)CC3)CC2)c1` [Example 32] it is 430%; for `O=C(NC1CCOCC1)N1CCC(n2ncc3cc(C(F)(F)F)ccc32)CC1` [Example 297] it is 340%.
Still for that read-out and setting: in the case of `COC(C)c1c(C)ccc2c1cnn2C1CCN(C(=O)NC2CCC(F)(F)CC2)CC1` (stereo not shown) [Example 232] it was 860%.
The same measure, in the same setting: in the case of `O=C(NC1CCOCC1)N1CCC(n2ncc3c(OC(F)(F)F)cccc32)CC1` [Example 304] it was 380%; in that of `CCc1ccc2c(cnn2C2CCN(C(=O)N[C@H]3CC[C@H](OC)CC3)CC2)c1` [Example 16, 4-(5-ethyl-1H-indazol-1-yl)-N-(trans-4-methoxycyclohexyl)piperidine-1-carboxamide], 1764%.
`COC1CCC(NC(=O)N2CCC(n3ncc4c(Br)cccc43)CC2)CC1` (stereo not shown) [Example 98]: the “α7PAM (%) @ 10 μmol/L” value is 89%.
Take `CC(C)Oc1ccc2c(cnn2C2CCN(C(=O)NC3CCCCC3)CC2)c1` [Example 48, N-cyclohexyl-4-(5-isopropoxy-1H-indazol-1-yl)piperidine-1-carboxamide]: the “α7PAM (%) @ 10 μmol/L” value came to 1202%.
Same read-out and setting: the figure for `CCc1ccc2c(cnn2[C@H]2CC[C@@H](NC(=O)NC3CCC(F)(F)CC3)CC2)c1` [Example 5, 1-(4,4-difluorocyclohexyl)-3-(cis-4-(5-ethyl-1H-indazol-1-yl)cyclohexyl)urea] is 1368%.
The same measure, in the same setting: the figure for `CCc1ccc2c(cnn2C2CCN(C(=O)NC3CCOCC3)CC2)c1OC` [Example 275, 4-(5-ethyl-4-methoxy-1H-indazol-1-yl)-N-(tetrahydro-2H-pyran-4-yl)piperidine-1-carboxamide] is 1093%; for `Cc1ccc2c(cnn2C2CCN(C(=O)NC3CCCCC3)CC2)c1` [Example 8, N-cyclohexyl-4-(5-methyl-1H-indazol-1-yl)piperidine-1-carboxamide] it is 3053%; for `COc1c(C(F)(F)F)ccc2c1cnn2C1CCN(C(=O)NC2CCC(OC)CC2)CC1` (stereo not shown) [Example 317] it is 360%.
Consider `CCc1ccc2c(cnn2C2CCN(C(=O)NC3CCCOC3)CC2)c1` (stereo not shown) [Example 22, 4-(5-ethyl-1H-indazol-1-yl)-N-(tetrahydro-2H-pyran-3-yl)piperidine-1-carboxamide], for which the “α7PAM (%) @ 10 μmol/L” value is 1425%.
Still for that read-out and setting: in the case of `CCCc1ccc2c(cnn2C2CCN(C(=O)NC3CCOCC3)CC2)c1` [Example 15, 4-(5-propyl-1H-indazol-1-yl)-N-(tetrahydro-2H-pyran-4-yl)piperidine-1-carboxamide] it was 1025%; in that of `O=C(NC1CCC(F)(F)CC1)N1CCC(n2ncc3cc(OC4CC4)ccc32)CC1` [Example 249, 4-[5-(cyclopropoxy)-1H-indazol-1-yl]-N-(4,4-difluorocyclohexyl)piperidine-1-carboxamide], 1463%; in that of `CCc1ccc2c(cnn2C2CCN(C(=O)N[C@H]3CC[C@H](OC)CC3)CC2)c1OC` [Example 255, 4-(5-ethyl-4-methoxy-1H-indazol-1-yl)-N-(trans-4-methoxycyclohexyl)piperidine-1-carboxamide], 1096%.
`COCc1nn(C2CCN(C(=O)NC3CCCCC3)CC2)c2ccc(C)cc12` [Example 68]: the “α7PAM (%) @ 10 μmol/L” value came to 430%.
Still for that read-out and setting: in the case of `Cc1ccc2c(cnn2C2CCN(C(=O)N[C@H]3CCCC3(F)F)CC2)c1` [Example 80, (S)—N-(2,2-difluorocyclopentyl)-4-(5-methyl-1H-indazol-1-yl)piperidine-1-carboxamide] it was 1033%; in that of `Cc1ccc2c(cnn2C2CCN(C(=O)N[C@H]3CCCCC3(F)F)CC2)c1` [Example 79, (S)—N-(2,2-difluorocyclohexyl)-4-(5-methyl-1H-indazol-1-yl)piperidine-1-carboxamide], 1064%.
Still for that read-out and setting: the figure for `CCc1cccc2c1cnn2C1CCN(C(=O)NC2CCC(F)(F)CC2)CC1` [Example 64, N-(4,4-difluorocyclohexyl)-4-(4-ethyl-1H-indazol-1-yl)piperidine-1-carboxamide] is 1133%; for `CCCc1ccc2c(cnn2C2CCN(C(=O)NC3CCC(OC)CC3)CC2)c1` (stereo not shown) [Example 76] it is 420%; for `O=C(Nc1ccc(C(F)(F)F)nc1)N1CCC(n2ncc3cc(C4CC4)ccc32)CC1` [Example 187] it is 220%.
For the compound `CCOc1ccc2c(cnn2C2CCN(C(=O)NC3CCCCC3)CC2)c1` [Example 18, N-cyclohexyl-4-(5-ethoxy-1H-indazol-1-yl)piperidine-1-carboxamide], the “α7PAM (%) @ 10 μmol/L” value was 6779%.
Same read-out and setting: in the case of `Cc1ccc2c(cnn2C2CCN(C(=O)NC3CCC(F)(F)CC3)CC2)c1` [Example 13, N-(4,4-difluorocyclohexyl)-4-(5-methyl-1H-indazol-1-yl)piperidine-1-carboxamide] it was 3399%; in that of `Cc1ccc2c(cnn2C2CCN(C(=O)NC3CCC(OCC(F)(F)F)CC3)CC2)c1` (stereo not shown) [Example 83], 420%; in that of `CCc1ccc2c(cnn2[C@H]2CC[C@@H](NC(=O)[C@H]3CC[C@H](OC)CC3)CC2)c1` [Example 122], 410%.
On the same count and under the same terms, in the case of `CCOc1cccc2c1cnn2C1CCN(C(=O)N[C@H]2CC[C@@H](OC)CC2)CC1` [Example 184] it was 200%; in that of `CCO[C@H]1CC[C@H](NC(=O)N2CCC(n3ncc4cc(C)ccc43)CC2)CC1` [Example 90, N-(trans-4-ethoxycyclohexyl)-4-(5-methyl-1H-indazol-1-yl)piperidine-1-carboxamide], 1467%.
Still for that read-out and setting: the figure for `CO[C@H]1CCC[C@H](NC(=O)N2CCC(n3ncc4cc(C5CC5)ccc43)CC2)C1` [Example 211, 4-(5-cyclopropyl-1H-indazol-1-yl)-N-[(1S,3S)-3-methoxycyclohexyl]piperidine-1-carboxamide] is 1034%; for `CCc1ccc2c(cnn2C2CCN(C(=O)C3CCOCC3)CC2)c1` [Example 111] it is 410%.
As for `Cc1ccc2c(c1)c(C)nn2C1CCN(C(=O)NC2CCC(F)(F)CC2)CC1` [Example 45, N-(4,4-difluorocyclohexyl)-4-(3,5-dimethyl-1H-indazol-1-yl)piperidine-1-carboxamide], the “α7PAM (%) @ 10 μmol/L” value was found to be 1576%.
